The record followed here is ChEMBL document CHEMBL4610102, “Betulinic Acid Inhibits RANKL-Induced Osteoclastogenesis via Attenuating Akt, NF-κB, and PLCγ2-Ca2+ Signaling and Prevents Inflammatory Bone Loss” (J Nat Prod, 2020).

Data set [1] deals with BMDM. Description: Anti-osteoporosis activity in ICR mouse bone marrow macrophages assessed as inhibition of RANKL-induced NFATc1 protein expression at 0.1 to 1 uM after 24 hrs by Western blot analysis. The class given is functional, cell-based.
In data set [2] the test system is BMDM. The data set can be described thus: Anti-osteoporosis activity in ICR mouse bone marrow macrophages assessed as inhibition of RANKL-induced c-Fos protein expression at 0.1 to 1 uM after 24 hrs by Western blot analysis. The class given is functional, cell-based. For orientation: A western blot detects proteins with antibodies after separation by electrophoresis.

The subject of data set [3] is BMDM. Description: Inhibition of RANKL-induced osteoclastogenesis in ICR mouse bone marrow macrophages assessed as reduction in TRAP-positive multinucleated osteoclasts at 0.1 to 1 uM after 3 days by TRAP staining based assay. The class given is functional, cell-based.
For data set [4], the target named is RAC-alpha serine/threonine-protein kinase (Mus musculus) (UniProt P31750). The data set can be described thus: Inhibition of AKT phosphorylation in RANKL-induced ICR mouse bone marrow macrophages at 1 uM preincubated for 1 hr followed by RANKL-stimulation and measured after 5 to 30 mins by Western blot analysis.
Chain of RAC-alpha serine/threonine-protein kinase (Mus musculus) (P31750 whole entry): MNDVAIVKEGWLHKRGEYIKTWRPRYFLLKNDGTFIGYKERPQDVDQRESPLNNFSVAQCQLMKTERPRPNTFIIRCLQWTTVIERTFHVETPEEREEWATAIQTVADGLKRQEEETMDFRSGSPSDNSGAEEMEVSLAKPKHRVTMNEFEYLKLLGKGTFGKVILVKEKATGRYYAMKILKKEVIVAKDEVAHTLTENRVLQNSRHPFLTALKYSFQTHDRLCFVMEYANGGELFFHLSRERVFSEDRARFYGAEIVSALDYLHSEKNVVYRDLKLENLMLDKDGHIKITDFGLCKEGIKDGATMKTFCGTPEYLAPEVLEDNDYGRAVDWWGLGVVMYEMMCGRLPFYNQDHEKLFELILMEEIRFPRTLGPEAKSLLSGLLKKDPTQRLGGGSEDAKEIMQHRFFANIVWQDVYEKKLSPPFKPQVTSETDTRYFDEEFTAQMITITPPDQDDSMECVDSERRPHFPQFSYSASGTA
The next data set has as its system HEK-293T. The data set can be described thus: Trans-suppression of NFkappaB (unknown origin) in HEK293T cells cotransfected with betagalactosidase at 10 uM incubated for 12 hrs followed by RANKL-stimulation by luciferase reporter gene assay. The class given is cell-based. The settings on record: Homo sapiens.
Data set [5] deals with BMDM. Description: Inhibition of RANKL-induced osteoclastogenesis in ICR mouse bone marrow macrophages assessed as reduction in TRAP-positive multinucleated osteoclasts after 4 days by TRAP staining based assay. The class given is functional, cell-based.
For data set [6], the system named is Mus musculus. Description: Anti-resorptive activity in ICR mouse model of LPS-Induced bone loss assessed as reduction in trabecular separation in proximal femurs at 10 mg/kg, po for 8 days by micro-CT analysis. The class given is functional, organism-based.
Data set [7] has as its system BMDM. Description: Anti-osteoporosis activity in ICR mouse bone marrow macrophages assessed as inhibition of RANKL-induced OSCAR mRNA expression at 10 uM after 12 to 48 hrs by RT-PCR analysis. The format is functional.
Data set [8] has as its target T1, 1-phosphatidylinositol 4,5-bisphosphate phosphodiesterase gamma-2 (Mus musculus) (UniProt Q8CIH5).
T1 sequence (whole entry): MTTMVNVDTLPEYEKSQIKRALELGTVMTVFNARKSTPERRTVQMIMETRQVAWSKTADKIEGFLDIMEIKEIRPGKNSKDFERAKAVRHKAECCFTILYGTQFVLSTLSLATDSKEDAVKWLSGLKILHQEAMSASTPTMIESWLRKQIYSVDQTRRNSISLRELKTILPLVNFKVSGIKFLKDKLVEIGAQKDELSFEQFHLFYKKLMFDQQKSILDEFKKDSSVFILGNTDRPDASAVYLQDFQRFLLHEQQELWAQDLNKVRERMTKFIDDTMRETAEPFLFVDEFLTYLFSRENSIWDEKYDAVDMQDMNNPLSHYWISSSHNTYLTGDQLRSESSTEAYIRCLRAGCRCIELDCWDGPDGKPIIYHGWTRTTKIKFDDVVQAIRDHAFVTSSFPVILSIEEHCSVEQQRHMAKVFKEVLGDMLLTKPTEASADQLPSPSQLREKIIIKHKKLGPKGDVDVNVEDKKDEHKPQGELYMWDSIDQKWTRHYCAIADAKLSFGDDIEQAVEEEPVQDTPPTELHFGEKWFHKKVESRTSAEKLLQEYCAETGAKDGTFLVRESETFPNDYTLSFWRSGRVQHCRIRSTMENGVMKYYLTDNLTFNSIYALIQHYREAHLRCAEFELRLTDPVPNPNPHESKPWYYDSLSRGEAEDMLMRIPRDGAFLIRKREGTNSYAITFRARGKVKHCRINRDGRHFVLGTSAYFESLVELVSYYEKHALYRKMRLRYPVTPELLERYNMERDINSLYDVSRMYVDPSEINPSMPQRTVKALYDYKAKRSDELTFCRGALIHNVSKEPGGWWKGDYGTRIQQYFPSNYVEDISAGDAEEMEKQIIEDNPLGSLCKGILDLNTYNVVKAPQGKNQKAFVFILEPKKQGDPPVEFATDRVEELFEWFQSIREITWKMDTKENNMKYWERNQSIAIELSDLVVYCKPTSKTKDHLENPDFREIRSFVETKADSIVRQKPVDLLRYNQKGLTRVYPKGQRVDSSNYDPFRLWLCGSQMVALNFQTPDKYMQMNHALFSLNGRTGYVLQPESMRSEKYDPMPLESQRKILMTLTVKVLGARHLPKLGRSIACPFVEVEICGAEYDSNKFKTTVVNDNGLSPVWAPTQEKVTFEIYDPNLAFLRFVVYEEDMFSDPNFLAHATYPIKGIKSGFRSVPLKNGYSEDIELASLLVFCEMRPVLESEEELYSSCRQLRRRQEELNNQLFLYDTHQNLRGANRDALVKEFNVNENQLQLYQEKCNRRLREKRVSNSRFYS
Description: Inhibition of PLCgamma2 phosphorylation in RANKL-induced ICR mouse bone marrow macrophages at 10 uM preincubated for 1 hr followed by RANKL-stimulation and measured after 5 to 30 mins by Western blot analysis.

The subject of data set [9] is Mus musculus. The data set can be described thus: Anti-resorptive activity in ICR mouse model of LPS-Induced bone loss assessed as increase in bone volume per tissue volume in proximal femurs at 10 mg/kg, po for 8 days by micro-CT analysis. The class given is functional, organism-based.
Data set [10] relates to BMDM. The data set can be described thus: Anti-osteoporosis activity in ICR mouse bone marrow macrophages assessed as inhibition of RANKL-induced c-Fos protein expression at 10 uM after 12 to 48 hrs by Western blot analysis. The format is functional, cell-based.
In data set [11] the target is RAC-alpha serine/threonine-protein kinase (Mus musculus) (UniProt P31750). Description: Inhibition of AKT phosphorylation in RANKL-induced ICR mouse bone marrow macrophages at 10 uM preincubated for 1 hr followed by RANKL-stimulation and measured after 5 to 30 mins by Western blot analysis.
For data set [12], the system named is Mus musculus. Description: Anti-resorptive activity in ICR mouse model of LPS-Induced bone loss assessed as increase in trabecular bone in femurs at 10 mg/kg, po for 8 days by H and E staining based light microscopic analysis. The class given is functional, organism-based.
Data set [13] relates to Mus musculus. The data set can be described thus: Anti-resorptive activity in ICR mouse model of LPS-Induced bone loss assessed as reduction in bone loss in proximal femurs at 10 mg/kg, po for 8 days by micro-CT analysis. The class given is functional, organism-based.
In data set [14] the test system is BMDM. The data set can be described thus: Anti-osteoporosis activity in ICR mouse bone marrow macrophages assessed as inhibition of RANKL-induced ATP6v0d2 mRNA expression at 10 uM after 12 to 48 hrs by RT-PCR analysis. The class given is functional.
Data set [15] relates to BMDM. Description: Anti-osteoporosis activity in ICR mouse bone marrow macrophages assessed as inhibition of RANKL-induced DC-STAMP mRNA expression at 10 uM after 12 to 48 hrs by RT-PCR analysis. The class given is functional.
Data set [16] deals with BMDM. Description: Cytotoxicity against ICR mouse bone marrow macrophages assessed as reduction in cell viability up to 10 uM after 3 days by XTT assay. The settings on record: 72 h. The class given is cell-based. (In general: Formazan colour is commonly taken as a measure of viable cells.)
The subject of data set [17] is Osteoclast. Description: Inhibition of bone-resorbing in ICR mouse osteoclasts assessed as downregulation of Ctsk-mRNA expression at 10 uM after 12 to 48 hrs by RT-PCR analysis. The class given is functional, cell-based.
The target in data set [18] is I-kappa-B kinase (Mus musculus) (UniProt Q60680+O88351+O88522). The data set can be described thus: Inhibition of IKappaB phosphorylation in RANKL-induced ICR mouse bone marrow macrophages at 10 uM preincubated for 1 hr followed by RANKL-stimulation and measured after 5 to 30 mins by Western blot analysis. The class given is protein-complex assay.
Data set [19] deals with BMDM. Description: Anti-osteoporosis activity in ICR mouse bone marrow macrophages assessed as inhibition of RANKL-induced NFATc1 mRNA expression at 10 uM after 12 to 48 hrs by RT-PCR analysis. The format is functional, cell-based.
Data set [20] deals with BMDM. Description: Inhibition of RANKL-induced osteoclastogenesis in ICR mouse bone marrow macrophages harboring constitutively active IKKbeta assessed as reduction in TRAP-positive multinucleated osteoclasts at 10 uM after 3 days by TRAP staining based assay. The class given is functional, cell-based.
For data set [21], the system named is BMDM. The data set can be described thus: Inhibition of RANKL-induced osteoclastogenesis in ICR mouse bone marrow harboring constitutively active AKT macrophages assessed as reduction in TRAP-positive multinucleated osteoclasts at 10 uM after 3 days by TRAP staining based assay. The format is functional, cell-based.
Data set [22] concerns Mus musculus. The data set can be described thus: Anti-resorptive activity in ICR mouse model of LPS-Induced bone loss assessed as increase in trabecular number in proximal femurs at 10 mg/kg, po for 8 days by micro-CT analysis. The class given is functional, organism-based.
Data set [23] deals with Osteoclast. The data set can be described thus: Inhibition of bone-resorbing in ICR mouse osteoclasts assessed as reduction in resorption at 10 uM after 24 hrs by pit formation assay. The class given is functional, cell-based.
Data set [24] has as its system Mus musculus. Description: Anti-resorptive activity in ICR mouse model of LPS-Induced bone loss assessed as inhibition of TRAP-positive multinucleated osteoclasts formation in femurs at 10 mg/kg, po for 8 days by TRAP staining based light microscopic analysis. The class given is functional, organism-based.
For data set [25], the system named is BMDM. The data set can be described thus: Anti-osteoporosis activity in ICR mouse bone marrow macrophages assessed as inhibition of RANKL-induced OC-STAMP mRNA expression at 10 uM after 12 to 48 hrs by RT-PCR analysis. The class given is functional.
Data set [26] concerns the target T1, 1-phosphatidylinositol 4,5-bisphosphate phosphodiesterase gamma-2 (Mus musculus). The data set can be described thus: Inhibition of PLCgamma2 in ICR mouse bone marrow macrophages assessed as reduction in calcium influx at 10 uM after 3 days by Fluo-3/AM staining based confocal microscopic analysis.
Data set [27] has as its system BMDM. Description: Anti-osteoporosis activity in ICR mouse bone marrow macrophages assessed as inhibition of RANKL-induced MMP9 mRNA expression at 10 uM after 12 to 48 hrs by RT-PCR analysis. The class given is functional.
Data set [28] has as its system BMDM. The data set can be described thus: Anti-osteoporosis activity in ICR mouse bone marrow macrophages assessed as inhibition of RANKL-induced c-Fos mRNA expression at 10 uM after 12 to 48 hrs by RT-PCR analysis. The class given is functional, cell-based.
In data set [29] the test system is BMDM. Description: Anti-osteoporosis activity in ICR mouse bone marrow macrophages assessed as inhibition of RANKL-induced beta3-integrin mRNA expression at 10 uM after 12 to 48 hrs by RT-PCR analysis. The class given is functional.
The subject of data set [30] is BMDM. Description: Anti-osteoporosis activity in ICR mouse bone marrow macrophages assessed as inhibition of RANKL-induced NFATc1 protein expression at 10 uM after 12 to 48 hrs by Western blot analysis. The class given is functional, cell-based.

Calls of active or inactive are those of the source. The calls are words filed in the database; no cut-off is given here.

Turning to `NC1(c2ccc(-c3nc4ccn5c(=O)[nH]nc5c4cc3-c3ccccc3)cc2)CCC1`, the inhibition result (with BMDM [1]; in the data set on BMDM [2]; in the data set with BMDM [3]; in data set [4]) was “Active” throughout.
`C=C(C)[C@@H]1CC[C@]2(C(=O)O)CC[C@]3(C)[C@H](CC[C@@H]4[C@@]5(C)CC[C@H](O)C(C)(C)[C@@H]5CC[C@]43C)[C@@H]12` [BETULINIC ACID]: the outcome in the data set with HEK-293T, in the data set with Mus musculus [6], in the data set on Mus musculus [9], with Mus musculus [12], in the data set with Mus musculus [13] and in the data set on Mus musculus [22] was Active. The inhibition entry with BMDM [5] is “Dose-dependent effect”. The “fold change (FC)” value in the data set with BMDM [7], with BMDM [14], in the data set on BMDM [15], in the data set with BMDM [25], with BMDM [27] and in the data set with BMDM [29] was 2 - 4 each time. In addition, the inhibition entry (in data set [8]; with BMDM [10]; in [11]; in the data set on Osteoclast [17]; in [18]; in the data set on BMDM [19]) was “Active” in each case. In addition, the inhibition entry (in the data set on BMDM [20]; in the data set with Osteoclast [23]; in the data set on Mus musculus [24]; in [26]; in the data set on BMDM [28]; in the data set on BMDM [30]) was “Active” throughout. In addition, the Activity entry in the data set with BMDM [16] is “Non-Toxic”. Moreover, the inhibition entry in the data set with BMDM [21] is “inactive”.
